Reference: patent publication US20210386781A1, “A GROUP OF CHIMERIC ANTIGEN RECEPTORS (CARS)” (ST. ANNA KINDERKREBSFORSCHUNG, priority 2018, published 2021)

Experiments:
A431-fLuc = assay: Luciferase-based cytotoxicity assay, stably transduced CAR T cells against A431-fLuc, Example 4; format: cell-based, human; details: T cells without CAR expression; 10 nM
Procedure: Luciferase-expressing tumour cells were co-cultured with CAR T cells at an E:T cell ratio of 2:1 with 10,000 target cells/well in white round-bottom 96 well plates for 4 hours at 37° C. in cytotoxicity assay medium, consisting of phenol-free RPMI, 10% FCS, 1% L-Glutamine and 1% penicillin-streptomycin. Finally, remaining living cells were quantified by determination of the residual luciferase activity of the co-culture. After equilibration to room temperature for 10 minutes, luciferin was added to the cell suspension (150 μg/mL final concentration) and luciferase activity was measured 20 minutes later using the ENSPIRE Multimode plate reader. The percentage of specific lysis was determined with the following formula:
% specific lysis=100−((RLU from well with effector and target cell co-culture)/(RLU from well with target cells only)×100)).
Dimerization of transgenes was induced prior to co-cultivation experiments. Primary T cells were diluted to the final cell concentration in the respective cell culture medium. The homodimerization agent AP20187 was diluted in cell culture medium and was added at 10 nM final concentration. Addition of the respective vehicle control DMSO at the same concentration served as control. Cells were incubated at 37° C. for 30 minutes to ensure efficient dimerization of transgenes and subsequently used for in vitro experiments.

[1] = test system: Jurkat T cells expressing tHER2; assay: Luciferase-based cytotoxicity assay, affibody-based CAR T cells against tHER2-expressing Jurkat T cells, Example 8; format: cell-based, human; details: binder fused to 8ser-BB-FKBP(36V)-3z; with or without 10 nM AP20187; E:T 2:1, 4 hours
Procedure: Luciferase-expressing tumour cells were co-cultured with CAR T cells at an E:T cell ratio of 2:1 with 10,000 target cells/well in white round-bottom 96 well plates for 4 hours at 37° C. in cytotoxicity assay medium, consisting of phenol-free RPMI, 10% FCS, 1% L-Glutamine and 1% penicillin-streptomycin. Finally, remaining living cells were quantified by determination of the residual luciferase activity of the co-culture. After equilibration to room temperature for 10 minutes, luciferin was added to the cell suspension (150 μg/mL final concentration) and luciferase activity was measured 20 minutes later using the ENSPIRE Multimode plate reader. The percentage of specific lysis was calculated with the following formula:
Dimerization of transgenes was induced prior to co-cultivation experiments. Primary T cells were diluted to the final cell concentration in the respective cell culture medium. The homodimerization agent AP20187 was diluted in cell culture medium and was added at 10 nM final concentration. Addition of the vehicle control DMSO at the same concentration served as control. Cells were incubated at 37° C. for 30 minutes to ensure efficient dimerization of transgenes and subsequently used for in vitro experiments.

Compound | effect of the dimerization agent itself on lysis of target cells (A431-fLuc) | capacity to trigger cytotoxicity in presence or absence of AP20187 [1]
CC[C@H](C(=O)N1CCCC[C@H]1C(=O)O[C@H](CCc1ccc(OC)c(OC)c1)c1cccc(OCC(=O)NCC(CNC(=O)COc2cccc([C@@H](CCc3ccc(OC)c(OC)c3)OC(=O)[C@@H]3CCCCN3C(=O)[C@@H](CC)c3cc(OC)c(OC)c(OC)c3)c2)CN(C)C)c1)c1cc(OC)c(OC)c(OC)c1 [AP20187, reference compound] | no effects on the lysis of target cells | 
zHER2-WT: high-affinity anti-HER2 affibody with point mutations N23A and S33K |  | efficient target cell lysis independent of presence of AP20187
